Source: patent US20260315487A1, “IKK-ALPHA INHIBITORS” (Cancer Research Technology Limited, priority 2023, published 2026)

Legend:
IKKα = target: T1, IKKα (Homo sapiens, UniProt O15111); assay: in-house DELFIA kinase assay, IKKα; assay type: biochemical
T1 sequence (O15111 1-745): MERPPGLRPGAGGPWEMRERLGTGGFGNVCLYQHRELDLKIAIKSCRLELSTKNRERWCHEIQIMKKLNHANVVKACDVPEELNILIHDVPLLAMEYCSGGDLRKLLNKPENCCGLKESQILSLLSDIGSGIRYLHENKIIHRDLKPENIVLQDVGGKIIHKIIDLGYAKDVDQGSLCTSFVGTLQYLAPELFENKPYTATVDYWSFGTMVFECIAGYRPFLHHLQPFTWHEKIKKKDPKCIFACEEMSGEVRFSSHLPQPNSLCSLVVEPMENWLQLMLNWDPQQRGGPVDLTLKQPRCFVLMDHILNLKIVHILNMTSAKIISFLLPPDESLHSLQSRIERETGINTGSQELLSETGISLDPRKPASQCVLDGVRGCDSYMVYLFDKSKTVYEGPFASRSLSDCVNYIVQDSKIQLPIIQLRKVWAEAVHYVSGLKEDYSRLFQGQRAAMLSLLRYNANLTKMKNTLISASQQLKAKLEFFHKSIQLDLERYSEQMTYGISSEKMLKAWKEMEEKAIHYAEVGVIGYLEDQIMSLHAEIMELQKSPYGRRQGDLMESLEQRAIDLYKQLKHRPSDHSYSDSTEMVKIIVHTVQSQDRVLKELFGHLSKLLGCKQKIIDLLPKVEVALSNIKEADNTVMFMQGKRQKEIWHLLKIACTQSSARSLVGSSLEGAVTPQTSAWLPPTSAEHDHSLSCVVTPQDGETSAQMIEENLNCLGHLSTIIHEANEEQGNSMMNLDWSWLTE
From the text: To examine the pyrrolo[2,3 -b]pyridines as an alternative scaffold, we adopted the AIPP core because it had similar dimensions to 1 SU909, with HBD/HBA motifs positioned at the scaffold extremities to interact with both the hinge region and the G-loop wall of IKKα, a rationale we had previously proposed as the basis for imparting selectivity. A preliminary set of AIPP derivatives was designed to explore its utility as an IKK-targeting scaffold, whilst incorporating additional functionality through which to introduce selectivity for the IKKα isoform (2-4 SU1087, SU1266 and SU1253; FIG. 3). This was achieved by initially adopting two different approaches: either appending a hydrophobic moiety to the pyrrolo[2,3 -b]pyridine motif as a fused form to afford the tricyclic derivatives 2 and 3 SU1266 and SU1087, or as a phenyl substituent to introduce flexibility with the central pyrrolo[2,3 -b]pyridine moiety in 4 SU1253 . […] The pyrrolo[2,3 -b]pyridine was bound to the hinge region in the classical HBA/HBD motif with the GK+3 NH and C═O backbone, whilst the aminoindazole projected towards the top of the pocket to interact with the G-loop (FIG. 4A). […] In both isoforms, the 2 -phenyl moiety was oriented out from the hinge towards the exposed solvent area.

IKKβ = target: T2, IKKβ (Homo sapiens, UniProt O14920); assay: in-house DELFIA kinase assay, IKKβ; assay type: biochemical
T2 sequence (O14920 1-756): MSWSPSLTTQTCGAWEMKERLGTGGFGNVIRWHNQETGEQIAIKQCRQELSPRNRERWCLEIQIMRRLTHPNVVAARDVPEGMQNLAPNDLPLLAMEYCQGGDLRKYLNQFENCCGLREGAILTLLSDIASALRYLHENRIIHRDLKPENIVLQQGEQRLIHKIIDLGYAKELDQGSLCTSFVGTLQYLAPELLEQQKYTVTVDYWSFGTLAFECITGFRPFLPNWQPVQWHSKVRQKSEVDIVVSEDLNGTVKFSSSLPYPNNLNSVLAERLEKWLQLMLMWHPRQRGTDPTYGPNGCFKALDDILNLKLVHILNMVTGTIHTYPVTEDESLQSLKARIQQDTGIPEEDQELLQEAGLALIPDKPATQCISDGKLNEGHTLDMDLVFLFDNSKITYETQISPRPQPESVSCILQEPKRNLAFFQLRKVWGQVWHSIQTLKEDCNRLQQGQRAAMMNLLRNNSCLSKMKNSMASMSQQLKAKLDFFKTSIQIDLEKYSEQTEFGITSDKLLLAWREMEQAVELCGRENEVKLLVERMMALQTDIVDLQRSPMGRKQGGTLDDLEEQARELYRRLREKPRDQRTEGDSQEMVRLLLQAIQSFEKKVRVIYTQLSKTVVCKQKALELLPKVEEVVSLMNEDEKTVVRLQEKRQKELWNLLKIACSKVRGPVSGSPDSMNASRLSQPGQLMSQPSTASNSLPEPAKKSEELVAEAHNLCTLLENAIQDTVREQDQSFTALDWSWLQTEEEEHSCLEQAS
From the text: To examine the pyrrolo[2,3 -b]pyridines as an alternative scaffold, we adopted the AIPP core because it had similar dimensions to 1 SU909, with HBD/HBA motifs positioned at the scaffold extremities to interact with both the hinge region and the G-loop wall of IKKα, a rationale we had previously proposed as the basis for imparting selectivity. A preliminary set of AIPP derivatives was designed to explore its utility as an IKK-targeting scaffold, whilst incorporating additional functionality through which to introduce selectivity for the IKKα isoform (2-4 SU1087, SU1266 and SU1253; FIG. 3). This was achieved by initially adopting two different approaches: either appending a hydrophobic moiety to the pyrrolo[2,3 -b]pyridine motif as a fused form to afford the tricyclic derivatives 2 and 3 SU1266 and SU1087, or as a phenyl substituent to introduce flexibility with the central pyrrolo[2,3 -b]pyridine moiety in 4 SU1253 .

| Ki (IKKα) [nM] | Ki (IKKβ) [nM] | IKKβ inhibition, in words (IKKβ) | SMILES |
| --- | --- | --- | --- |
| 2 | 77 | – | Nc1n[nH]c2ccc(-c3ccnc4[nH]c5c(c34)CCCC5)cc12 [2 SU1266, 5-(6,7,8,9 -Tetrahydro-5 H-pyrido[2,3-b]indol-4-yl)-1 H-indazol-3-amine] |
| 3 | 5 | – | Nc1n[nH]c2ccc(-c3ccnc4[nH]c5ccccc5c34)cc12 [3 SU1087, 5-(9 H-pyrido[2,3-b]indol-4-yl)-1 H-indazol-3-amine] |
| 4 | 42 | – | Nc1n[nH]c2ccc(-c3ccnc4[nH]c(-c5ccccc5O)cc34)cc12 [5a SU1354, 2-(4-(3 -Amino-1 H-indazol-5-yl)-1 H-pyrrolo[2,3-b]pyridin-2-yl)phenol] |
| 25 | 149 | – | Nc1n[nH]c2ccc(-c3ccnc4[nH]c(-c5cccc(S(=O)(=O)N6CCOCC6)c5)cc34)cc12 [5aa SU1311, 5-(2-(3-(Morpholinosulfonyl)phenyl)-1 H-pyrrolo[2,3-b]pyridin-4-yl)-1 H-indazol-3-amine] |
| 8 | 86 | – | CCOc1ccccc1-c1cc2c(-c3ccc4[nH]nc(N)c4c3)ccnc2[nH]1 [5b SU1368, 5-(2-(2 -Ethoxyphenyl)-1 H-pyrrolo[2,3-b]pyridin-4-yl)-1 H-indazol-3-amine] |
| 5 | 28 | – | Nc1cccc(-c2cc3c(-c4ccc5[nH]nc(N)c5c4)ccnc3[nH]2)c1 [5c SU1304, 5-(2-(3 -Aminophenyl)-1 H-pyrrolo[2,3-b]pyridin-4-yl)-1 H-indazol-3-amine] |
| 5 | 26 | – | Nc1n[nH]c2ccc(-c3ccnc4[nH]c(-c5cccc(O)c5)cc34)cc12 [5d SU1348, 3-(4-(3 -Amino-1 H-indazol-5-yl)-1 H-pyrrolo[2,3-b]pyridin-2-yl)phenol] |
| 5 | 40 | – | COc1cccc(-c2cc3c(-c4ccc5[nH]nc(N)c5c4)ccnc3[nH]2)c1 [5e SU1332, 5-(2-(3 -Methoxyphenyl)-1 H-pyrrolo[2,3-b]pyridin-4-yl)-1 H-indazol-3-amine] |
| 4 | 42 | – | Nc1n[nH]c2ccc(-c3ccnc4[nH]c(-c5cc(O)cc(F)c5)cc34)cc12 [5f SU1384, 3-(4-(3 -Amino-1 H-indazol-5-yl)-1 H-pyrrolo[2,3-b]pyridin-2-yl)-5-fluorophenol] |
| 3 | 32 | – | COc1cc(F)cc(-c2cc3c(-c4ccc5[nH]nc(N)c5c4)ccnc3[nH]2)c1 [5g SU1373, 5-(2-(3 -Fluoro-5-methoxyphenyl)-1 H-pyrrolo[2,3-b]pyridin-4-yl)-1 H-indazol-3-amine] |
| 8 | 168 | – | Nc1n[nH]c2ccc(-c3ccnc4[nH]c(-c5cccc(C(=O)O)c5)cc34)cc12 [5h SU1303, 3-(4-(3 -Amino-1 H-indazol-5-yl)-1 H-pyrrolo[2,3-b]pyridin-2-yl)benzoic acid] |
| 5 | 159 | – | NC(=O)c1cccc(-c2cc3c(-c4ccc5[nH]nc(N)c5c4)ccnc3[nH]2)c1 [5i SU1294, 3-(4-(3 -Amino-1 H-indazol-5-yl)-1 H-pyrrolo[2,3-b]pyridin-2-yl)benzamide] |
| 3 | 109 | – | CS(=O)(=O)Nc1cccc(-c2cc3c(-c4ccc5[nH]nc(N)c5c4)ccnc3[nH]2)c1 [5j SU1288, N-(3-(4-(3 -Amino-1 H-indazol-5-yl)-1 H-pyrrolo[2,3-b]pyridin-2-yl)phenyl)methanesulfonamide] |
| 3 | 36 | – | CS(=O)(=O)c1cccc(-c2cc3c(-c4ccc5[nH]nc(N)c5c4)ccnc3[nH]2)c1 [5k SU1374, 5-(2-(3-(Methylsulfonyl)phenyl)-1 H-pyrrolo[2,3-b]pyridin-4-yl)-1 H-indazol-3-amine] |
| 6 | 25 | good IKKβ inhibition | COCCC(=O)Nc1cccc(-c2cc3c(-c4ccc5[nH]nc(N)c5c4)ccnc3[nH]2)c1 [5l SU1317, N-(3-(4-(3 -Amino-1 H-indazol-5-yl)-1 H-pyrrolo[2,3-b]pyridin-2-yl)phenyl)-3-methoxypropanamide] |
| 15 | 107 | good IKKβ inhibition | COCCNC(=O)c1cccc(-c2cc3c(-c4ccc5[nH]nc(N)c5c4)ccnc3[nH]2)c1 [5m SU1316, 3-(4-(3 -Amino-1 H-indazol-5-yl)-1 H-pyrrolo[2,3-b]pyridin-2-yl)-N-(2-methoxyethyl)benzamide] |
| 35 | 470 | lowest activity against IKKβ | Nc1n[nH]c2ccc(-c3ccnc4[nH]c(-c5cccc(CNc6ccccc6)c5)cc34)cc12 [5p SU1549, 5-(2-(3-((Phenylamino)methyl)phenyl)-1 H-pyrrolo[2,3-b]pyridin-4-yl)-1 H-indazol-3-amine] |
| 57 | 1060 | lowest activity against IKKβ | Nc1n[nH]c2ccc(-c3ccnc4[nH]c(-c5ccccc5OCc5ccccc5)cc34)cc12 [5q SU1353, 5-(2-(2-(Benzyloxy)phenyl)-1 H-pyrrolo[2,3-b]pyridin-4-yl)-1 H-indazol-3-amine] |
| 10 | 1050 | lowest activity against IKKβ | Cc1ccc(S(=O)(=O)Nc2cccc(-c3cc4c(-c5ccc6[nH]nc(N)c6c5)ccnc4[nH]3)c2)cc1 [5t SU1278, N-(3-(4-(3 -Amino-1 H-indazol-5-yl)-1 H-pyrrolo[2,3-b]pyridin-2-yl)phenyl)-4-methylbenzensulfonamide] |
| 24 | 215 | – | CN1CCN(C(=O)c2cccc(-c3cc4c(-c5ccc6[nH]nc(N)c6c5)ccnc4[nH]3)c2)CC1 [5v SU1312, (3-(4-(3 Amino-1 H-indazol-5-yl)-1 H-pyrrolo[2,3-b]pyridin-2-yl)phenyl)(4-methylpiperazin-1-y)methanone] |
| 16 | 402 | lowest activity against IKKβ | Nc1n[nH]c2ccc(-c3ccnc4[nH]c(-c5cccc(OCc6ccccn6)c5)cc34)cc12 [5w SU1324, 5-(2-(3-(pyridin-2-ylmethoxy)phenyl)-1 H-pyrrolo[2,3-b]pyridin-4-yl)-1 H-indazol-3-amine] |
| 8 | 122 | good IKKβ inhibition | Nc1n[nH]c2ccc(-c3ccnc4[nH]c(-c5cccc(OCC6CCOCC6)c5)cc34)cc12 [5x SU1335, 5-(2-(3-((Tetrahydro-2 H-pyran-4-yl)methoxy)phenyl)-1 H-pyrrolo[2,3-b]pyridin-4-yl)-1 H-indazol-3-amine] |
